# Biological target: T1, human Y5 receptor (Homo sapiens, UniProt Q15761)
# T1 construct: expressed in transfected cells; host or cells: mouse fibroblast LM(tk-) cells, e.g. L-hY5-7 (ATCC CRL-11995)
# T1 sequence (Q15761 1-445): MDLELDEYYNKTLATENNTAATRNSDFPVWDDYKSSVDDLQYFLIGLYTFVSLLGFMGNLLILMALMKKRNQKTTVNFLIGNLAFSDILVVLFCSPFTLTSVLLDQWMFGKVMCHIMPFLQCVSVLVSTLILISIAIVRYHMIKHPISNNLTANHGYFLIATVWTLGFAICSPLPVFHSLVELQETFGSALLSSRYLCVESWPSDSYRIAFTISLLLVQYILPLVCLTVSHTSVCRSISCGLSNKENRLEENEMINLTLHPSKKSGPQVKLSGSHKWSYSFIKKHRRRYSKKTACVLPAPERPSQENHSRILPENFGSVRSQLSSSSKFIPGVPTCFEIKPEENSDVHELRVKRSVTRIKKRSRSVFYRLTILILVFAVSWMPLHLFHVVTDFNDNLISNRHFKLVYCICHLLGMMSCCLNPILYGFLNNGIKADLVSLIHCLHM
# Test: Radioligand binding to membranes, cloned human Y5 receptor
# Conditions: Table 1; read-out: Ki (nM) hNPY-5
row,Ki [nM],SMILES
1,19,"CC(C)Nc1nc(NCC2CCC(CNS(=O)(=O)c3cccc4ccccc34)CC2)nc(N2CCCC2)n1 (stereo not drawn) [Example 20, N1-[4-([4-(isopropylamino)-6-tetrahydro-1H-1-pyrrolyl-1,3,5-triazin-2-yl]aminomethyl)cyclohexyl]methyl-1-naphthalenesulfonamide]"
2,22,"COCCCNc1nc(NCC2CCC(CNS(=O)(=O)c3cccc4ccccc34)CC2)nc(NC(C)C)n1 (stereo not drawn) [Example 13, N1-(4-[(4-(isopropylamino)-6-[(3-methoxypropyl)amino]-1,3,5-triazin-2-ylamino)methyl]cyclohexylmethyl)-1-naphthalenesulfonamide]"
3,38,"CC(C)Nc1nc(NCC2CCC(CNS(=O)(=O)c3cccc4ccccc34)CC2)nc(N2CCCCC2)n1 (stereo not drawn) [Example 22, N1-{[4-({[4-(isopropylamino)-6-piperidino-1,3,5-triazin-2-yl]amino}methyl)cyclohexyl]methyl}-1-naphthalenesulfonamide]"
4,22,"CC(C)Nc1nc(NCC2CCC(CNS(=O)(=O)c3cccc4ccccc34)CC2)nc(NC2CCC2)n1 (stereo not drawn) [Example 7, N1-[4-([4-(cyclobutylamino)-6-(isopropylamino)-1,3,5-triazin-2-yl]aminomethyl)cyclohexyl]methyl-1-naphthalenesulfonamide]"
5,35,"CC(C)Nc1nc(NCCO)nc(NCC2CCC(CNS(=O)(=O)c3cccc4ccccc34)CC2)n1 (stereo not drawn) [Example 11, N1-[4-([4-[(2-hydroxyethyl)amino]-6-(isopropylamino)-1,3,5-triazin-2-yl]aminomethyl)cyclohexyl]methyl-1-naphthalenesulfonamide]"
6,135,"CC(C)Nc1nc(NCC2CCC(CNS(=O)(=O)c3cccc4ccccc34)CC2)nc(N2C[C@@H](C)O[C@@H](C)C2)n1 (stereo partly drawn) [Example 25, N1-{[4-({[4-[(2R,6S)-2,6-dimethyl-1,4-oxazinan-4-yl]-6-(isopropylamino)-1,3,5-triazin-2-yl]amino}methyl)cyclohexyl]methyl}-1-naphthalenesulfonamide]"
7,68,"CC(C)Nc1nc(NCC2CCC(CNS(=O)(=O)c3cccc4ccccc34)CC2)nc(N2CCCCC2C)n1 (stereo not drawn) [Example 23, N1-[4-([4-(isopropylamino)-6-(2-methylpiperidino)-1,3,5-triazin-2-yl]aminomethyl)cyclohexyl]methyl-1-naphthalenesulfonamide]"

# Same assay, conditions: Table 2; read-out: Ki (nM) hNPY-5
row,Ki [nM],SMILES
1,313,"CCNc1nc(NCC)nc(NCC2CCC(CNS(=O)(=O)c3cn(C)cn3)CC2)n1 (stereo not drawn) [Example 38, N4-[4-([4,6-di(ethylamino)-1,3,5-triazin-2-yl]aminomethyl)cyclohexyl]methyl-1-methyl-1H-4-imidazolesulfonamide]"
2,22,"CCNc1nc(NCC)nc(NCC2CCC(CNS(=O)(=O)c3ccccc3C)CC2)n1 (stereo not drawn) [Example 33, N1-[4-([4,6-di(ethylamino)-1,3,5-triazin-2-yl]aminomethyl)cyclohexyl]methyl-2-methyl-1-benzenesulfonamide]"
3,13,"CCNc1nc(NCC)nc(NCC2CCC(CNS(=O)(=O)c3cccc4cccnc34)CC2)n1 (stereo not drawn) [Example 41, N8-[4-([4,6-di(ethylamino)-1,3,5-triazin-2-yl]aminomethyl)cyclohexyl]methyl-8-quinolinesulfonamide]"
4,3070,"CCNc1nc(NCC)nc(NCC2CCC(CNS(C)(=O)=O)CC2)n1 (stereo not drawn) [Example 42, N-[4-([4,6-di(ethylamino)-1,3,5-triazin-2-yl]aminomethyl)cyclohexyl]methylmethanesulfonamide]"

# Same assay, conditions: Table 3; read-out: Ki (nM) hNPY-5
row,Ki [nM],SMILES
1,101,"O=S(=O)(NCC1CCC(CNc2nc(NC3CC3)nc(N3CCCC3)n2)CC1)c1ccc(F)cc1 (stereo not drawn) [Example 52, N1-[4-([4-(cyclopropylamino)-6-tetrahydro-1H-1-pyrrolyl-1,3,5-triazin-2-yl]aminomethyl)cyclohexyl]methyl-4-fluoro-1-benzenesulfonamide]"
2,43,"CC(C)Nc1nc(NCC2CCC(CNS(=O)(=O)N3CCCC3)CC2)nc(N2CCCC2)n1 (stereo not drawn) [Example 43, N1-[4-([4-(isopropylamino)-6-tetrahydro-1H-1-pyrrolyl-1,3,5-triazin-2-yl]aminomethyl)cyclohexyl]methyl-1-pyrrolidinesulfonamide]"
3,192,"CC(C)Nc1nc(NCC2CCC(CNS(=O)(=O)N(C)C)CC2)nc(NC2CC2)n1 (stereo not drawn) [Example 48, N′-[4-([4-(cyclopropylamino)-6-(isopropylamino)-1,3,5-triazin-2-yl]aminomethyl)cyclohexyl]methyl-N,N-dimethylsulfamide]"

# Same assay, conditions: Table 4; read-out: Ki (nM) hNPY-5
row,Ki [nM],SMILES
1,94400,"CCNc1nc(NCC)nc(NCCCCCn2cccn2)n1 [Example 56, N2,N4-diethyl-N6-[5-(1H-1-pyrazolyl)pentyl]-1,3,5-triazine-2,4,6-triamine]"

# Same assay, conditions: Table 5; read-out: Ki, nM hNPY-5
row,Ki [nM],SMILES
1,3.2,"COc1ccc(C)cc1S(=O)(=O)NC[C@H]1CC[C@H](Nc2nc(-c3nc(C)sc3C)cs2)CC1 [Example 89, trans-N1-[(4-[4-(2,5-Dimethyl-1,3-thiazol-4-yl)-1,3-thiazol-2-yl]aminocyclohexyl)methyl]-2-methoxy-5-methyl-1-benzenesulfonamide]"
2,13.7,"COc1ccc(C)cc1S(=O)(=O)NCCCCCNc1nc(-c2nccs2)cs1 [Example 88, N1-(5-[4-(1,3-thiazol-2-yl)-1,3-thiazol-2-yl]aminopentyl)-2-methoxy-5-methyl-1-benzenesulfonamide]"
3,19.5,"Cc1nc(-c2csc(NCCCCCNS(=O)(=O)c3ccc(F)cc3)n2)c(C)s1 [Example 94, N1-(5-[4-(2,5-Dimethyl-1,3-thiazol-4-yl)-1,3-thiazol-2-yl]aminopentyl)-4-fluoro-1-benzenesulfonamide]"
4,17,"COc1ccc(C)cc1S(=O)(=O)N[C@H]1CC[C@H](CNc2nc(-c3ccncc3)cs2)CC1 [Example 87, trans-2-(4-(2-Methoxy-5-methylphenyl)sulfonylamino)-cyclohexylmethylamino-4-(4-pyridyl)thiazole dihydrogen chloride]"
5,3.1,"Cc1nc(-c2cnc(NC[C@H]3CC[C@H](CNS(=O)(=O)N(C)C)CC3)s2)c(C)s1 [Example 99, trans-N′-[4-([5-(2,5-Dimethyl-1,3-thiazol-4-yl)-1,3-thiazol-2-yl]aminomethyl)cyclohexyl]methyl-N,N-dimethyl-sulfamide]"
6,7.9,"COc1ccc(C)cc1S(=O)(=O)NCCCCCNc1nc(-c2cccs2)cs1 [Example 92, N1-(5-{[4-(2-Thienyl)-1,3-thiazol-2-yl]amino}pentyl)-2-methoxy-5-methyl-1-benzenesulfonamide]"

# Same assay, conditions: Table 6; read-out: Ki, nM hNPY-5
row,Ki [nM],SMILES
1,7.4,"CS(=O)(=O)NCCCCCCNc1nc2c(s1)CCSc1ccccc1-2 [Example 103, N-[6-(4,5-Dihydrobenzo[2,3]thiepino[4,5-d][1,3]thiazol-2-ylamino)hexyl]methanesulfonamide]"
2,71,"O=S(=O)(NCCCCCNc1nc2c(s1)CCSc1ccccc1-2)c1c(Cl)cccc1Cl [Example 131, N1-[5-(4,5-Dihydrobenzo[2,3]thiepino[4,5-d][1,3]thiazol-2-ylamino)pentyl]-2,6-dichloro-1-benzenesulfonamide]"
3,21,"O=S(=O)(NC[C@H]1CC[C@H](Nc2nc3c(s2)CCSc2ccccc2-3)CC1)c1cccc(C(F)(F)F)c1 [Example 150, N1-{[4-(4,5-Dihydrobenzo[2,3]thiepino[4,5-d][1,3]thiazol-2-ylamino)cyclohexyl]methyl}-3-(trifluoromethyl)-1-benzenesulfonamide]"
4,71,"CN(C)c1cccc2c(S(=O)(=O)NCCCCCCNc3nc4c(s3)CCSc3ccccc3-4)cccc12 [Example 115, N1-[6-(4,5-Dihydrobenzo[2,3]thiepino[4,5-d][1,3]thiazol-2-ylamino)hexyl]-5-(dimethylamino)-1-naphthalenesulfonamide]"
5,27,"CN(C)c1cccc2c(S(=O)(=O)NC[C@H]3CC[C@H](Nc4nc5c(s4)CCSc4ccccc4-5)CC3)cccc12 [Example 122, N1-{[4-(4,5-Dihydrobenzo[2,3]thiepino[4,5-d][1,3]thiazol-2-ylamino)cyclohexyl]methyl}-5-(dimethylamino)-1-naphthalenesulfonamide]"
6,25,"O=S(=O)(NCCCCCCNc1nc2c(s1)CCSc1ccccc1-2)c1c(Cl)cccc1Cl [Example 146, N1-[6-(4,5-Dihydrobenzo[2,3]thiepino[4,5-d][1,3]thiazol-2-ylamino)hexyl]-2,6-dichloro-1-benzenesulfonamide]"
7,13,"COCCN(C=O)[C@H]1CC[C@H](CNc2nc3c(s2)CCSc2ccc(F)cc2-3)CC1 [Example 164, trans-N-(4-[(9-Fluoro-4,5-dihydrobenzo[2,3]thiepino-[4,5-d][1,3]thiazol-2-yl)amino]methylcyclohexyl)-N-(2-methoxyethyl)formamide]"
8,12.3,"COCCN(C=O)[C@H]1CC[C@H](CNc2nc3c(s2)CCSc2ccccc2-3)CC1 [Example 163, trans-N-4-[(4,5-dihydrobenzo[2,3]thiepino[4,5-d][1,3]thiazol-2-ylamino)methyl]cyclohexyl-N-(2-methoxyethyl)formamide]"
9,11.5,"O=[N+]([O-])c1ccccc1S(=O)(=O)NC[C@H]1CC[C@H](Nc2nc3c(s2)CCSc2ccccc2-3)CC1 [Example 124, N1-{[4-(4,5-Dihydrobenzo[2,3]thiepino[4,5-d][1,3]thiazol-2-ylamino)cyclohexyl]methyl}-2-nitro-1-benzenesulfonamide]"

# From US7189720B2 (H. Lundbeck A/S, priority 1999, dated 2007)
